# Assay results from patent publication US8420653B2, “Pyrimidine compounds and their uses” (Orchid Chemicals & Pharmaceuticals Limited, priority 2008, dated 2013).
# pIC50: −log10 of the molar value.
# What was measured:
# [1] = target: T1, PDE4B enzyme (Homo sapiens, UniProt Q07343); assay: PDE4 assay with pure PDE4B enzyme (Calbiochem); assay type: biochemical
# T1 construct: purchased Calbiochem
# [2] = test system: LPS induced neutrophilia; assay: LPS induced neutrophilia model for asthma and COPD; assay type: in vivo; conditions: Wistar rats, BAL 4 h after LPS
# Protocol: LPS Induced Neutrophilia Model for Asthma and COPD LPS induced neutrophilia in Wistar rats was performed using the protocol described in Pulm Pharmacol & Ther 17, 3, 133-140, 2004. Male Wistar rats were acclimatized to laboratory conditions five to seven days prior to the start of the experiment. They were randomly distributed to various groups based on body weight. Except normal group all the animals were exposed to LPS 100 μg/ml for 40 min. The rats were dosed with the test compound suspended in the vehicle containing 0.25% carboxymethylcellulose before half an hour of LPS exposure. BAL was performed 4 h after LPS exposure, total cell count and DLC was done and compared with control and the standard drug. Percentage Inhibition for neutrophilia was calculated.
# [3] = test system: TNF-α; assay: LPS induced sepsis for measurement of TNF-α inhibition in mice; assay type: in vivo; conditions: Mus musculus; TNF alpha inhibition in mice sepsis model
# Protocol: LPS Induced Sepsis for Measurement of TNF-α Inhibition in Mice
# The LPS induced sepsis model in mice was performed as described by Les sekut et al (J Lab Clin Med 1994; 124, 813-20). Female Swiss albino mice were selected and the body weights were equivalent within each group. The mice were fasted for 20 hours with free access to water. The mice were dosed orally with the test compound suspended in vehicle containing 0.5% Tween 80 in 0.25% Carboxy-methylcellulose sodium salt. The control mice were administered the vehicle alone. After 30 minutes of oral dosing, mice were injected with 500 μg of Lipopolysaccharide (Escherichia coli, LPS: B4 from Siga) in phosphate buffer saline solution into the intraperitoneal cavity of the mice. After 90 minutes of LPS administration mice were bled via retro-orbital sinus puncture. Blood samples were stored overnight at 4° C. Serum samples were collected by centrifuging the samples at 4000 rpm for 15 minutes at 4° C. Immediately the serum samples were analyzed for TNF-α levels using commercially available mouse TNF-α ELISA kit (Amersham Biosciences) and assay was performed by the manufacturer instruction.
# ED50 Measurement of TNF Alpha Inhibition in Mice Sepsis Model
# [4] = test system: PDE4; assay: PDE4 activity (source human U937 cells); assay type: biochemical; conditions: read-out: PDE4 inhibition IC50 (nm)
# Protocol: PDE4 inhibition was measured by following a literature assay procedure (Cortizo J et al., Br J. Pharmacol., 1993, 108: 562-568. The assay method involves the following conditions.
# Substrate: 1.01 μM [^3H] camp+camp
# Pre-Incubation Time/Temperature: 15 minutes at 25° C.
# Incubation Time/Temperature. 20 minutes at 25° C.
# Incubation buffer: 50 mM Tris-HCl, pH 7.5, 5 mM MgCl2
# Quantitation method: Quantitation of [^3H] Adenosine
# Significance criteria: ≧50% of max stimulation or inhibition
# [5] = test system: TNF-α; assay: In vitro measurement of TNF-α in human PBMC; assay type: cell-based
# Protocol: In Vitro Measurement of TNF-α in Human Peripheral Blood Mononuclear Cells
# This assay determines the effect of test compounds on the production of TNF a in human Peripheral Blood Mononuclear Cells (PBMC). Compounds were tested for their ability to inhibit the activity of TNF α in human PBMC. PBMC were isolated from blood (of healthy volunteers) using BD Vacutainer CPT™ (Cell preparation tube, BD Bio Science) and suspended in RPMI medium (Physiol. Res. 52, 593-598, 2003). The test compounds were pre-incubated with PBMC (0.5 million/incubation well) for 15 minutes at 37° C. and then stimulated with Lipopolysaccharide (Escherichia coli: B4; 1 μg/ml) for 18 hours at 37° C. in 5% CO2. The levels of TNF-α in the cell culture medium were estimated using enzyme-linked immunosorbent assay performed in a 96 well format as per the procedure of the manufacturer (Cayman Chemical, Ann Arbor, USA).
# [6] = test system: TNF-α; assay: In vitro measurement of TNF-α in human whole blood; assay type: cell-based
# Protocol: In Vitro Measurement of TNF-α in Human Whole Blood
# This assay determines the effect of test compounds on the production of TNF-α in human whole blood. Compounds were tested for their ability to inhibit the activity of TNF-α in whole blood.
# Heparanised blood from a healthy human volunteer was collected and diluted with RPMI 1640 incomplete medium (1:5 dilution). Diluted blood was aliquoted into 96 well plate 170 ul/well immediately. 20 ul of the drug of different concentrations was added to the respective wells with a control. The plate was incubated in 37° C. thermo mixer at 400 rpm for 60-70 minutes. After the incubation 10 ul of the LPS (from E. coli B4) was added to get the final concentration of 1 ug/well. The plate was again incubated in the 37° C. thermo mixer at 400 rpm 120 minutes in the thermo mixer and then left in the 37° C. CO2 incubator for two more hours so that the total stimulation time is four hours. The plasma was collected carefully without disturbing the pellet at the bottom and stored at −20° C. Then TNF-α levels were estimated using the R&D systems ELISA kit duoset kit (DY210).
# [7] = test system: TPA induced dermatitis; assay: Psoriasis model, TPA induced dermatitis; assay type: in vivo; conditions: mice, topical on the ears
# Protocol: Inhibitory Activity in Psoriasis Model TPA induced dermatitis in mice was performed using the protocol described in Eur J Pharmacol 507, 253-259, 2005. Balb/c mice were acclimatized to laboratory conditions 5-7 days prior to the start of the experiment. They were randomly distributed to various groups based on body weight. The baseline ear thickness of the animal's both ears using thickness gauge was measured. For each animal 20 μl of that contains 2.5 μg of TPA was applied with help of micropipettor with disposable tips. Test compound was applied topically to both inner and outer surface of the both the ears i.e. left and right ear with acetone as control after 30 minutes 6 hours and 24 hours after application of TPA (20 μl). Ear thickness was measured after 6 and 24 hours in animals, while for ear weight ears were excised under anesthesia and weighed.
# T1 sequence (Q07343 whole entry, species assumed): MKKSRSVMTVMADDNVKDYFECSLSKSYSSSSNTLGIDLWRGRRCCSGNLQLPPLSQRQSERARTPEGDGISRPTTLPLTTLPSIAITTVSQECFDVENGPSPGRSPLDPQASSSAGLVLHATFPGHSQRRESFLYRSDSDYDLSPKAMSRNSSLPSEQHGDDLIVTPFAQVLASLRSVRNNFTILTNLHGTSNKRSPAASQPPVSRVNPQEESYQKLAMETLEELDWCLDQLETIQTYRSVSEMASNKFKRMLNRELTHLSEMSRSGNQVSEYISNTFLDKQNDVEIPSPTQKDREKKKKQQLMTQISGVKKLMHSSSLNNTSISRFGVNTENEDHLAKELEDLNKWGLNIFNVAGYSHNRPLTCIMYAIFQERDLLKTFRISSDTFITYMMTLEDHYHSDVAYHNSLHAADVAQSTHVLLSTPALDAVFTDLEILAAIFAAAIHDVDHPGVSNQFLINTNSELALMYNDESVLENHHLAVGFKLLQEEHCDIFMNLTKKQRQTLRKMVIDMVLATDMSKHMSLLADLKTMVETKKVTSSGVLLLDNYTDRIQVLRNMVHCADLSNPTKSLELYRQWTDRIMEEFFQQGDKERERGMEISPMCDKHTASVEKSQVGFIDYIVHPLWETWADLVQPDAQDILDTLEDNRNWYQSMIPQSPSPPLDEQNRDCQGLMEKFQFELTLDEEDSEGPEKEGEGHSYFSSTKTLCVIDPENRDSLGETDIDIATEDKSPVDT
structure (smiles),measurement,setting,value
"NS(=O)(=O)c1cccc(-c2c(-c3ccccc3)nc(C(F)(F)F)nc2N2CCOCC2)c1 [Example 98, 3-[4-Morpholin-4-yl-2-(trifluoromethyl)-6-phenyl-pyrimidin-5-yl]benzenesulfonamide]",inhibition at 10 µM,[1],76.1%
same,LPS induced neutrophilia % inhibition at 10 mg/kg,[2],31.73%
same,ED50,[3],0.01 mg/kg
same,pIC50,[4],8.15
same,inhibition at 1 µM,[5]; Conc. (1 μM),94.1%
same,inhibition at 10 µM,[5]; Conc. (10 μM),94.6%
same,inhibition at 1 µM,[6]; Conc. (1 μM),40.6%
same,inhibition at 10 µM,[6]; Conc. (10 μM),62%
same,Psoriasis-acute TPA induced dermatitis % inhibition Ear Wt,[7],11.84%
same,Psoriasis-acute TPA induced dermatitis % inhibition Ear thickness,[7],41.10%
